These results are taken from patent US9290476B2, “Methylene linked quinolinyl modulators of RORγt” (Janssen Pharmaceutica NV, priority 2012, dated 2016).

One test has as its target human RORγt LBD (Homo sapiens (Human), UniProt P51449). In words: RORγt reporter assay (GAL4-RORγt LBD luciferase in HEK293T cells). Format: cell-based. The settings on record: for IC50: 24 hours compound treatment; for inhibition at 6 µM: HEK-293T, read-out: RORγt reporter Assay, % inhibition @ 6 μM, HEK293T cells, 6 μM. The source says:
A reporter assay was used to test functional activity of RORγt modulatory compounds on transcriptional activation driven by the RORγt LBD. Cells used in the assay were co-transfected with two constructs. The first construct, pBIND-RORγt LBD, contained the wild type human RORγt LBD fused to the DNA binding domain of the GAL4 protein. The second construct, pGL4.31 (Promega Cat no. C935A), contained multiple GAL4 responsive DNA elements upstream of firefly luciferase. […] The mutant construct was called pBIND-RORγt-AF2.
The pBIND vector contains the GAL4 DNA Binding Domain (GAL4 DBD) and the renilla luciferase gene under control of the SV40 promoter. Renilla luciferase expression serves as a control for transfection efficiency and cell viability.
The reporter assay was performed by transiently transfecting HEK293T cells with 5 ng of pBIND-RORγt LBD or pBIND-RORγt LBD-AF2 and 5 μg pGL4.31 (Promega Cat no. C935A) using Fugene 6 ([…] Cat no. E2691) at a 1:6 ratio of DNA: Fugene 6 in a T-75 flask in which cells were at least 80% confluent. Twenty four hours after bulk transfection, cells were plated into 96-well plates at 50,000 cells/well in phenol-red free DMEM containing 5% Lipid Reduced FCS and Pen/Strep. Six hours after plating, cells were treated with compounds for 24 hours. Media was removed and cells were lysed with 50 μL 1× Glo Lysis Buffer (Promega). Dual Glo Luciferase Reagent (50 μL/well) was then added and firefly luciferase luminescence was read on an Envision after a ten minute incubation. Finally, Stop and Glo reagent (50 μL/well) was added and renilla luciferase luminescence was read on an Envision after a ten minute incubation. To calculate the effect of compounds on RORγt activity, the ratio of firefly to renilla luciferase was determined and plotted against compound concentration. Agonist compounds increase RORγt-driven luciferase expression, and antagonist or inverse agonist compounds decrease luciferase expression.

For test [1], the target named is human RORγt ligand binding domain (RORγt LBD) (Homo sapiens (Human), UniProt P51449). In words: RORγt ThermoFluor assay (thermal shift binding affinity). The settings on record: estimated from thermal shift. The protocol: This approach is applicable to a wide variety of systems, and rigorous in theoretical interpretation through quantitation of equilibrium binding constants (KD).
human RORγt ligand binding domain (RORγt LBD), sequence (P51449 other isoform, or with tags, fused parts or gaps): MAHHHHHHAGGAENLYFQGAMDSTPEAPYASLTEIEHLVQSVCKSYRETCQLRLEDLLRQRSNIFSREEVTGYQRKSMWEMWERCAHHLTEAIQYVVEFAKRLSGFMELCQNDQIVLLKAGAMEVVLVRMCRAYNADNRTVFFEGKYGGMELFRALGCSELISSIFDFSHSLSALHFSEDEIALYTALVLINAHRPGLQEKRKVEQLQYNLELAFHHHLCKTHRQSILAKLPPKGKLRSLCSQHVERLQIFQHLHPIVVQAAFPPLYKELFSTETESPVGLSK
The shift in the melting point described as a ΔTm is proportional to the concentration and affinity of the ligand.
RORγt ThermoFluor® Assay Construct
Protein and compound solutions are dispensed into black 384-well polypropylene PCR microplates (Abgene) and overlayed with silicone oil (1 μL, Fluka, type DC 200) to prevent evaporation.
Bar-coded assay plates are robotically loaded onto a thermostatically controlled PCR-type thermal block and then heated at a typical ramp-rate of 1° C./min for all experiments. Fluorescence was measured by continuous illumination with UV light (Hamamatsu LC6) supplied via fiber optic and filtered through a band-pass filter (380-400 nm; >6 OD cutoff). Fluorescence emission of the entire 384-well plate was detected by measuring light intensity using a CCD camera (Sensys, Roper Scientific) filtered to detect 500±25 nm, resulting in simultaneous and independent readings of all 384 wells. Images were collected at each temperature, and the sum of the pixel intensity in a given area of the assay plate was recorded versus temperature. Reference wells contained RORγt without compounds, and the assay conditions were as follows: • 0.065 mg/mL RORγt • 60 μM 1,8-ANS • 100 mM Hepes, pH 7.0 • 10 mM NaCl • 2.5 mM GSH • 0.002% Tween-20
Project compounds were arranged in a pre-dosed mother plate (Greiner Bio-one) wherein compounds are serially diluted in 100% DMSO by 1:2 from a high concentration of 10 mM over 12 columns within a series (column 12 is a reference well containing DMSO, no compound). The compounds were robotically dispensed directly into assay plates (1×=46 nL) using a Hummingbird capillary liquid handling instrument (Digilab). Following compound dispense, protein and dye in buffer was added to achieve the final assay volume of 3 μL, followed by 1 μL of silicone oil.

Structures are written as SMILES. Where a name gives a salt, the structure may show the parent alone.

human RORγt LBD, sequence (P51449 258-518): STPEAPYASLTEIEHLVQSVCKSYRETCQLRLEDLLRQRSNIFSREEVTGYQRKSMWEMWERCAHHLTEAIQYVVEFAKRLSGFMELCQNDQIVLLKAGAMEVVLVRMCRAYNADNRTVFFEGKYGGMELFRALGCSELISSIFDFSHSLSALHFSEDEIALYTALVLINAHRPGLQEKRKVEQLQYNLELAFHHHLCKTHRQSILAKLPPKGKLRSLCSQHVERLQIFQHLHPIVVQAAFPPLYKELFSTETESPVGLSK

`CNC(=O)c1nc2ccc(C(O)(c3ccc(F)cc3)c3cncn3C)cc2c(C(F)(F)F)c1Cc1ccccc1` (stereo not drawn) [Example 51, 3-Benzyl-6-((4-fluorophenyl)(hydroxy)(1-methyl-1H-imidazol-5-yl)methyl)-N-methyl-4-(trifluoromethyl)quinoline-2-carboxamide]: the midpoint of inhibition against human RORγt LBD (HEK293T cells), the IC50, lay at 1.9 µM. Moreover, on human RORγt LBD, the inhibition (usually the relative decrease from the control value, in per cent) at 6 µM was found to be 98%. Also, the Kd (as a rule, the equilibrium constant for the complex coming apart) in test [1] was 1.1 µM.
In the case of `COc1nc2ccc(C(O)(c3ccccc3)C3CCN(C(C)=O)CC3)cc2c(Cl)c1Cc1ccc(-n2cccn2)cc1` (racemic) [Example 83A, 1-(4-((3-(4-(1H-Pyrazol-1-yl)benzyl)-4-chloro-2-methoxyquinolin-6-yl)(hydroxy)(phenyl)methyl)piperidin-1-yl)ethanone], the IC50 (as a rule, the midpoint of a concentration-inhibition curve) against human RORγt LBD (HEK293T cells) stood at 0.039 µM. In addition, the inhibition at 6 µM on human RORγt LBD stood at 104%. In test [1], the dissociation constant (Kd) is 0.012 µM.
The like results for `COc1nc2ccc(C(O)(c3ccc(Cl)cc3)c3cncn3C)cc2c(C#N)c1Cc1ccc(-n2cccn2)cc1` (stereo not drawn) [Example 69, 3-(4-(1H-Pyrazol-1-yl)benzyl)-6-((4-chlorophenyl)(hydroxy)(1-methyl-1H-imidazol-5-yl)methyl)-2-methoxyquinoline-4-carbonitrile] were, in that order, 0.17 µM, 103% and 0.05 µM.
Consider `COc1nc2ccc(C(O)(c3ccc(C#N)cc3)c3cncn3C)cc2c(C#N)c1Cc1ccc(-n2cccn2)cc1` (single isomer, unassigned) [Example 76B, 3-(4-(1H-Pyrazol-1-yl)benzyl)-6-((4-cyanophenyl)(hydroxy)(1-methyl-1H-imidazol-5-yl)methyl)-2-methoxyquinoline-4-carbonitrile], for which the half-inhibitory concentration (IC50) on human RORγt LBD (HEK293T cells) is 0.12 µM. Further, on human RORγt LBD, the inhibition at 6 µM was found to be 102%. Moreover, the Kd in test [1] is 0.076 µM.
For the molecule `CCc1nc2ccc(C(O)(c3cnnn3C)C3CN(C(C)=O)C3)cc2c(Cl)c1Cc1ccc(C(F)(F)F)cc1` (stereo not drawn) [Example 90A, 1-(3-((4-Chloro-2-ethyl-3-(4-(trifluoromethyl)benzyl)quinolin-6-yl)(hydroxy)(1-methyl-1H-1,2,3-triazol-5-yl)methyl)azetidin-1-yl)ethanone], at human RORγt LBD (HEK293T cells), half-maximal inhibition (IC50) required 0.011 µM. Further, the inhibition at 6 µM on human RORγt LBD is 98%. Besides, the equilibrium dissociation constant (Kd) in test [1] was 0.00044 µM.
With `Cn1cc(C(O)(c2ccc(Cl)cc2)c2ccc3nc(Cl)c(Cc4ccccc4)c(Cl)c3c2)cn1` (stereo not drawn) [Example 49, (3-Benzyl-2,4-dichloroquinolin-6-yl)(4-chlorophenyl)(1-methyl-1H-pyrazol-4-yl)methanol.TFA], the IC50 against human RORγt LBD (HEK293T cells) is 1.8 µM. In addition, the inhibition at 6 µM on human RORγt LBD stood at 77%. For the same molecule, in test [1], the Kd is 0.33 µM.
At human RORγt LBD (HEK293T cells), `COc1ccc(C(O)(c2ccc3nc(Cl)c(Cc4ccccc4)c(Cl)c3c2)c2cncs2)cn1` (stereo not drawn) [Example 18, (3-Benzyl-2,4-dichloroquinolin-6-yl)(6-methoxypyridin-3-yl)(thiazol-5-yl)methanol] displayed an IC50 greater than 6 µM. Besides, on human RORγt LBD, the inhibition at 6 µM came out at 41%. In test [1], the dissociation constant (Kd) was 0.0045 µM.
Regarding `COc1nc2c(F)cc(C(O)(c3ccc(C(F)(F)F)nc3)c3cncn3C)cc2c(Cl)c1Cc1ccc(-n2cccn2)cc1` (single isomer, unassigned) [Example 58C, (3-(4-(1H-pyrazol-1-yl)benzyl)-4-chloro-8-fluoro-2-methoxyquinolin-6-yl)(1-methyl-1H-imidazol-5-yl)(6-(trifluoromethyl)pyridin-3-yl)methanol], at human RORγt LBD (HEK293T cells, 6 μM), the “RORγt reporter Assay, % inhibition @ 6 μM” value stood at 109%. Besides, inhibition against human RORγt LBD (HEK293T cells) was half-maximal at 0.66 µM (IC50). The Kd in test [1] was 0.27 µM.
In turn, `COc1nc2ccc(C(O)(c3ccc(C#N)cc3)c3cncn3C)cc2c(C#N)c1Cc1ccc(C(F)(F)F)cc1` (stereo not drawn) [Example 96A, 6-((4-cyanophenyl)(hydroxy)(1-methyl-1H-imidazol-5-yl)methyl)-2-methoxy-3-(4-(trifluoromethyl)benzyl)quinoline-4-carbonitrile] returned an IC50 at human RORγt LBD (HEK293T cells) of 0.0078 µM. Further, the inhibition at 6 µM on human RORγt LBD was 99%. For the same molecule, in test [1], the Kd was 0.0019 µM.
As for `OC(c1ccc(F)cc1)(c1cccnc1)c1ccc2nc(Cl)c(Cc3ccc(-n4cccn4)cc3)c(Cl)c2c1` (stereo not drawn) [Example 46, (3-(4-(1H-Pyrazol-1-yl)benzyl)-2,4-dichloroquinolin-6-yl)(4-fluorophenyl)(pyridin-3-yl)methanol], the midpoint of inhibition against human RORγt LBD (HEK293T cells), the IC50, lay at 0.052 µM. In addition, the inhibition at 6 µM at human RORγt LBD worked out at 89%. In addition, in test [1], the Kd is 0.022 µM.
`COc1ccc(Cc2c(OC)nc3ccc(C(O)(c4ccc(Cl)cc4)c4cncn4C)cc3c2Cl)cc1` (stereo not drawn) [Example 13, (4-Chloro-2-methoxy-3-(4-methoxybenzyl)quinolin-6-yl)(4-chlorophenyl)(1-methyl-1H-imidazol-5-yl)methanol.TFA]: the IC50 against human RORγt LBD (HEK293T cells) is roughly 1 µM. The inhibition at 6 µM at human RORγt LBD amounted to 70%. Moreover, in test [1], the Kd was 0.031 µM.
As to `CCOc1nc2ccc(C(O)(c3ccc(Cl)cc3)c3cncn3C)cc2c(Cl)c1Cc1ccccc1` (stereo not drawn) [Example 14, (3-Benzyl-4-chloro-2-ethoxyquinolin-6-yl)(4-chlorophenyl)(1-methyl-1H-imidazol-5-yl)methanol.TFA], the IC50 against human RORγt LBD (HEK293T cells) amounted to 0.56 µM. Further, the inhibition at 6 µM on human RORγt LBD stood at 74%. Besides, the dissociation constant Kd in test [1] was 0.091 µM.
For `CCOc1nc2ccc(C(O)(c3cncs3)c3cncn3C)cc2cc1Cc1ccc(OC)cc1` (stereo not drawn) [Example 24, (2-Ethoxy-3-(4-methoxybenzyl)quinolin-6-yl)(1-methyl-1H-imidazol-5-yl)(thiazol-5-yl)methanol.TFA], in that order: greater than 6 µM, 35% and 0.75 µM.
On to `COc1nc2c(C)cc(C(O)(c3ccc(Cl)cc3)c3cncn3C)cc2c(Cl)c1Cc1ccc(-n2cccn2)cc1` (single isomer, unassigned) [Example 28B, (3-(4-(1H-pyrazol-1-yl)benzyl)-4-chloro-2-methoxy-8-methylquinolin-6-yl)(4-chlorophenyl)(1-methyl-1H-imidazol-5-yl)methanol], for which the IC50 against human RORγt LBD (HEK293T cells) stood at 1.1 µM. The inhibition at 6 µM on human RORγt LBD was 90%. The dissociation constant Kd in test [1] is 1.6 µM.
On to `Cn1cncc1C(O)(c1ccc(C(F)(F)F)nc1)c1ccc2nc(C#N)c(Cc3ccc(-n4cccn4)cc3)cc2c1` (single isomer, unassigned) [Example 70B, 3-(4-(1H-Pyrazol-1-yl)benzyl)-6-(hydroxy(1-methyl-1H-imidazol-5-yl)(6-(trifluoromethyl)pyridin-3-yl)methyl)quinoline-2-carbonitrile], for which the half-inhibitory concentration (IC50) against human RORγt LBD (HEK293T cells) was determined as 1 µM. Moreover, on human RORγt LBD, the inhibition at 6 µM was found to be 101%. Moreover, the dissociation constant Kd in test [1] is 1.1 µM.
For `COc1nc2ccc(C(O)(c3ccc(C(F)(F)F)nc3)c3cncn3C)cc2c(Cl)c1Cc1ccc(C(F)(F)F)nc1` (stereo not drawn) [Example 94A, (4-Chloro-2-methoxy-3-((6-(trifluoromethyl)pyridin-3-yl)methyl)quinolin-6-yl)(1-methyl-1H-imidazol-5-yl)(6-(trifluoromethyl)pyridin-3-yl)methanol], at human RORγt LBD (HEK293T cells), inhibition was half-maximal at 0.069 µM (IC50). The inhibition at 6 µM on human RORγt LBD amounted to 98%. Further, the Kd in test [1] was 0.012 µM.
In turn, `Cn1cncc1C(O)(c1ccc(Cl)cc1)c1ccc2nc(O)c(Cc3ccc(-n4cccn4)cc3)c(Cl)c2c1` (single isomer, unassigned) [Example 55B, 3-(4-(1H-pyrazol-1-yl)benzyl)-4-chloro-6-((4-chlorophenyl)(hydroxy)(1-methyl-1H-imidazol-5-yl)methyl)quinolin-2-ol] had an IC50 against human RORγt LBD (HEK293T cells) of 2.4 µM. In addition, the inhibition at 6 µM at human RORγt LBD was determined as 85%. Moreover, in test [1], the Kd was greater than 81 µM.
